The record followed here is the Deep4Chem optical property database.

The data set can be described thus: solvent given as SMILES.

On to `CC(C)(C)c1ccc2c(c1)[nH]c1c3[nH]c4cc(C(C)(C)C)ccc4c3c3nsnc3c21`, for which the emission maximum is on record as 507 nm (in CN(C)C=O), 472 nm (in Cc1ccccc1) and 502 nm (in ClCCl).
On to `COc1ccccc1CC(=O)OCc1c(C)c(=O)n2c(=O)c(C)c(C)n12`, for which the emission maximum (in CCO) is on record as 461 nm.
Where the note is “in c1ccccc1”, `O=c1oc2ccccc2nc1-c1ccccc1` showed an emission maximum of 450 nm.
`COC(=O)c1ccc(C2=C3C=CC(C)=[N+]3[B-](F)(F)n3c(C)ccc32)cc1`: the emission maximum is given as 533 nm (in C1CCCCC1); 536 nm (in C1CCOC1); 531 nm (in CC#N); 533 nm (in CCOC(C)=O); 533 nm (in CO); 538 nm (in Cc1ccccc1). The same compound showed an emission maximum (in ClC(Cl)Cl) of 538 nm.
Consider `CC(C)(C)c1ccc(-c2cc(-c3ccc(-c4cc(-c5ccc(C(C)(C)C)cc5)c(C#N)s4)s3)sc2C#N)cc1`, for which, where the note is “in ClCCl”, the emission maximum was determined as 443 nm.
Take `CCCCC1(CCCC)c2cc(C#Cc3ccc(C=C4c5ccccc5CCc5ccccc54)cc3)ccc2-c2ccc(C#Cc3ccc(C=C4c5ccccc5CCc5ccccc54)cc3)cc21`: the emission maximum (in C1CCOC1) came out at 406 nm.
As for `Cc1ccc(/C=C(\c2ccccc2)c2nc3ccccc3s2)cc1`, the emission maximum (in C1CCCCC1) is recorded as 380 nm and the emission maximum (in CO) came out at 410 nm.
For `N#Cc1cc(-c2ccc(F)cc2)cnc1O`, the emission maximum reads like this: (in C1COCCO1) 422 nm; (in CC1CCCCC1) 425 nm; (in CC#N) 423 nm; (in CC(C)O) 424 nm; (in CCO) 425 nm; (in CO) 425 nm. Further, the emission maximum reads like this: (in CS(C)=O) 427 nm; (in ClC(Cl)(Cl)Cl) 429 nm; (in O) 425 nm.
`C(=C\c1c2ccccc2cc2ccccc12)/c1ccc(Oc2ccc3ccccc3c2-c2c(Oc3ccc(/C=C/c4c5ccccc5cc5ccccc45)cc3)ccc3ccccc23)cc1` came in with an emission maximum (in ClCCl) of 486 nm.
In turn, `Fc1nc(F)c(F)c(C#Cc2ccccc2C#Cc2c(F)c(F)nc(F)c2F)c1F` registered an emission maximum (in CC#N) of 370 nm.
In the case of `CCN(CC)c1ccc2cc(C#N)/c(=N\C(=O)c3ccccc3)oc2c1`, the emission maximum was found to be 472 nm (in CCO) and 460 nm (in ClCCl).
The compound `CCCCN1C(=O)c2cc(Br)c3c4c(Br)c(Br)c5c6c(cc(Br)c(c7c(Br)c(Br)c(c2c37)C1=O)c64)C(=O)N(CCCC)C5=O` showed an emission maximum (in ClC(Cl)Cl) of 580 nm.
As for `Cc1cc(O)c(C(=O)/C=C/c2ccc(N(C)C)cc2)c(=O)o1`, the emission maximum is 561 nm (in CC#N) and 573 nm (in ClCCl).
On to `c1ccc(C2=C3C4=C(C5=[N+]3[B-]3(Oc6ccccc65)Oc5ccccc5-c5c6c(c2n53)C2CCC6CC2)C2CCC4CC2)cc1` (stereo not given), for which the emission maximum (in ClCCl) is listed as 645 nm.
Still for that read-out and setting: as for `CN(C)c1ccc(-c2cccc3nsnc23)cc1`, the figure is 635 nm.
Under “in ClC(Cl)Cl”, `CCCCCCCCCCCCCCOc1ccc(C#Cc2cc3nc4c(OCCCCCCCCCCCC)cc5c6cc(OCCCCCCCCCCCC)c(OCCCCCCCCCCCC)cc6c6cc(OCCCCCCCCCCCC)c(OCCCCCCCCCCCC)cc6c5c4nc3cc2C#Cc2ccc(OCCCCCCCCCCCCCC)cc2)cc1` came in with an emission maximum of 663 nm.
For `CC(C)(C)c1ccc(C2=C(c3ccc(-n4c5ccc(C(C)(C)C)cc5c5cc(C(C)(C)C)ccc54)cc3)S(=O)(=O)c3c2sc(-c2ccc(-n4c5ccc(C(C)(C)C)cc5c5cc(C(C)(C)C)ccc54)cc2)c3-c2ccc(C(C)(C)C)cc2)cc1`, the emission maximum (in C1CCOC1) came out at 555 nm.
Take `CC(C)[Si](C#Cc1c2cc3ccccc3cc2c(C#Cc2ccccc2)c2cc3ccccc3cc12)(C(C)C)C(C)C`: under “in ClCCl”, the emission maximum amounted to 661 nm.
For `O=P1(c2ccccc2)C(c2cc(C(F)(F)F)cc(C(F)(F)F)c2)=Cc2c3ccc4cccc5ccc(c6cc(-c7ccccc7)n1c26)c3c45` (stereo not given), the emission maximum runs as follows: (in C1CCCCC1) 501 nm; (in C1CCOC1) 521 nm; (in C1COCCO1) 514 nm; (in CC#N) 531 nm; (in CC(C)=O) 526 nm; (in CO) 524 nm. The emission maximum (in Cc1ccccc1) was found to be 514 nm, the emission maximum (in ClC(Cl)Cl) came to 514 nm and the emission maximum (in ClCCl) is on record as 521 nm.
Compound `CC(C)(C)Nc1c(-c2ccc(-c3cc(=O)cc(-c4ccccc4)o3)cc2)nc2ccccn12` yielded an emission maximum (in ClCCl) of 515 nm.
Still for that read-out and setting: then `CN(C)c1cc(-c2ccc(C#Cc3cc[n+](C)cc3)cc2)cc2ccccc12`, with 510 nm.
Consider `O=C([O-])c1ccccc1C1=c2cc3c4c(c2Oc2c1cc1c5c2CCCN5CCC1)CCC[N+]=4CCC3`, for which the emission maximum reads like this: (in CC#N) 603 nm; (in CCO) 593 nm; (in CN(C)C=O) 608 nm; (in O) 604 nm.
With `c1ccc2c(-n3c(-c4ccc(-c5ccc(-c6nc7c8ccccc8c8ccccc8c7n6-c6cccc7ccccc67)c6ccccc56)c5ccccc45)nc4c5ccccc5c5ccccc5c43)cccc2c1`, under “in ClCCl”, the emission maximum came to 428 nm.
Compound `N#CC(C#N)=Cc1ccc2c(c1)c1ccccc1n2-c1cc2ccccc2c2ccccc12` registered an emission maximum (in CC#N) of 503 nm, an emission maximum (in CCCCC) of 451 nm, an emission maximum (in Cc1ccccc1) of 445 nm and an emission maximum (in ClCCl) of 480 nm.
In turn, `CCOC(=O)c1cc(C(=O)OCC)c2cc(N)ccc2n1` showed an emission maximum (in CCO) of 537 nm.
`Cc1cc(C)c(C2=C3C=C(/C=C/C(=O)OC(C)(C)C)C=[N+]3[B-](F)(F)n3cc(/C=C/C(=O)OC(C)(C)C)cc32)c(C)c1`: where the note is “in ClCCl”, the emission maximum is 610 nm.
As for `Cc1ccc(NC(=O)c2sc(Br)nc2C)cc1`, the emission maximum (in C1CCOC1) was found to be 407.5 nm; the emission maximum (in CC#N) is on record as 399.5 nm; the emission maximum (in CCCCCC) is 399 nm; the emission maximum (in CCOC(C)=O) is 404.5 nm; the emission maximum (in CN(C)C=O) is 451 nm; the emission maximum (in CO) worked out at 403 nm. The emission maximum by setting is: (in CS(C)=O) 401.5 nm; (in ClC(Cl)Cl) 412.4 nm.
Regarding `CCOC(=O)c1c2c3c(ccc(C)c3c3cc4c(cc13)[Si](C)(C)O[Si]4(C)C)N(C)C2=O`, the emission maximum (in CC#N) is given as 413 nm.
Consider `C[Si]1(C)O[Si](C)(C)c2cc3c(-c4ccc(F)cc4)c4ccccc4nc3cc21`, for which, for the setting “in ClCCl”, the emission maximum worked out at 503 nm.
As for `CC1(C)CC(=O)c2c(F)c(C(F)(F)F)c(F)c(F)c2N1`, the emission maximum is, setting by setting: (in CC#N) 419 nm; (in CCO) 453 nm.
`COC(=O)CCC1=CC(C#Cc2ccsc2)=[N+]2C1=Cc1c(CCC(=O)OC)cc(C#Cc3ccsc3)n1[B-]2(F)F`: the emission maximum (in ClCCl) turned out to be 653 nm.
Regarding `FC(F)(F)c1ccc(-c2c3cccc4c5cccc6c(-c7ccc(C(F)(F)F)cc7)c7cccc8c9cccc2c9c(c34)c(c65)c78)cc1`, where the note is “in Cc1ccccc1”, the emission maximum worked out at 699 nm.
The compound `COC(=O)c1ccc(/C=C2\C=C(c3ccc(OC)c(OC)c3)NC2=O)cc1` came in with an emission maximum (in C1COCCO1) of 574 nm.
With `CN(C)c1ccc(C2=CC(c3ccccc3)=[N+]3C2=Nc2c(-c4ccc(N(C)C)cc4)cc(-c4ccccc4)n2[B-]3(F)F)cc1`, the emission maximum (in Cc1ccccc1) is 822 nm.
On to `Cc1cccc(-c2nc3sc4ccccc4c3s2)c1`, for which the emission maximum (in CS(C)=O) was 412 nm.
In turn, `Fc1ccc(C2=NC(c3ccccc3)C(N(c3ccccc3)c3ccccc3)S2)cc1` (stereo not given) yielded an emission maximum (in ClC(Cl)Cl) of 461 nm.
The compound `CN(C)c1ccc(/C=C/c2cnc(C#Cc3ccc(C#N)cc3)o2)cc1` gave an emission maximum (in ClCCl) of 515 nm.
As for `COC(=O)/C=C/c1sc(-c2ccc(N(C)C)cc2)cc1N`, the emission maximum (in CC#N) turned out to be 609 nm.
`CCCCCCN1C(=O)c2cccc3c(-c4ccc(-c5ccc6c7c(cccc57)C(=O)N(CCCCCC)C6=O)s4)ccc(c23)C1=O` gave an emission maximum (in ClC(Cl)Cl) of 495 nm.
`CN(C)c1ccc(C(=Cc2ccc(/C=C(\C#N)c3ccccc3)cc2)c2ccc(N(C)C)cc2)cc1` registered an emission maximum (in C1CCOC1) of 616 nm.
As for `CC1=[N+]2C(=C(Oc3ccccc3)c3ccc(C)n3[B-]2(F)F)C=C1c1cc2n(c1)[B-](F)(F)[N+]1=CC=CC1=C2c1c(C)cc(C)cc1C`, the emission maximum is, setting by setting: (in C1CCCCC1) 630 nm; (in CCOC(C)=O) 665 nm.
Regarding `CN(C)c1ccc(C#Cc2ccc3ccc4c(C#Cc5ccc(N(C)C)cc5)ccc5ccc2c3c54)cc1`, the emission maximum runs as follows: (in C1COCCO1) 489.2 nm; (in CC(C)=O) 569.6 nm; (in CCCCCC) 460.4 nm; (in CCCCCCO) 528.2 nm; (in CCO) 540 nm; (in CCOC(C)=O) 523.5 nm. The emission maximum (in CO) stood at 554 nm, the emission maximum (in Cc1ccccc1) was determined as 483.7 nm and the emission maximum (in ClCCl) was 532.8 nm.
As for `CC(C)[Si](C#Cc1ccc(-c2c3cccc4c5cccc6c(-c7ccc(C#C[Si](C(C)C)(C(C)C)C(C)C)cc7)c7cccc8c9cccc2c9c(c34)c(c65)c78)cc1)(C(C)C)C(C)C`, the emission maximum (in Cc1ccccc1) came to 744 nm.
Where the note is “in ClC(Cl)Cl”, `CN1C(=CC2=C([O-])C(=Cc3sc4ccccc4[n+]3C)C2=C(C#N)C#N)C(C)(C)c2ccccc21` displayed an emission maximum of 708 nm.
As to `CC(C)(C)c1cc2ccc3cc(C(C)(C)C)cc4c3c2c(c1)c(=O)n1c4nc2c3cc(C(C)(C)C)cc4ccc5cc(C(C)(C)C)cc(c5c43)c21`, the emission maximum is, setting by setting: (in C1CCOC1) 523 nm; (in CC#N) 551 nm; (in CC(C)=O) 544 nm; (in CCCCCC) 495 nm; (in CCOC(C)=O) 524 nm; (in CS(C)=O) 553 nm. The compound also registered an emission maximum (in Cc1ccc(C)cc1) of 521 nm, an emission maximum (in ClC(Cl)(Cl)Cl) of 520 nm, an emission maximum (in ClC(Cl)Cl) of 551 nm and an emission maximum (in c1ccccc1) of 524 nm.
`CCC1=C(C)C2=C(/C=C/c3ccc(OC)cc3)c3c(C)c(CC)c(C)n3[B-](F)(F)[N+]2=C1C` yielded an emission maximum (in ClCCl) of 542 nm.
